Assay results: paper PMC4770715, “LIM kinase inhibitors disrupt mitotic microtubule organization and impair tumor cell proliferation” (Oncotarget, 2015)

Assays:
Assay in all cases: biochemical
Set-up in all cases: KINOMEscan active-site competition binding, percent of control (100 = no competition)
Details in all cases: competition binding, percent control
[1] = molecular target: AAK1 (Homo sapiens, UniProt Q2M2I8)
From the text: (§1) Given the potential for the use of LIMK inhibitors as cancer chemotherapeutics, a high-throughput drug discovery and medicinal chemistry program was undertaken. Details of the screening methodology and description of initial hit matter were described in [38]. […] Details of their chemical synthesis are described in Charles et al.. […] These and additional physiochemical parameters are in Supplemental Table 5. […] Kinases inhibited >25% to 50% have yellow circles, 51% to 75% have orange circles, and >76% have red circles. In each case, the size of the circle is proportional to percentage inhibition. LIMK1 and LIMK2 positions are indicated in blue. Illustration reproduced courtesy of Cell Signaling Technology, Inc. (www.cellsignal.com). B. CRT0105950 structure and kinome selectivity mapping as described above. C.

[2] = molecular target: T1, ABL1(M351T)-phosphorylated (Homo sapiens, UniProt P00519, M351T)
T1 construct: phosphorylated
From the text: as §1

[3] = molecular target: AKT2 (Homo sapiens, UniProt P31751)
From the text: as §1

[4] = molecular target: BRAF (Homo sapiens, UniProt P15056)
From the text: as §1

[5] = molecular target: BRSK1 (Homo sapiens, UniProt Q8TDC3)
From the text: as §1

[6] = molecular target: T2, CDC2L5 (Homo sapiens, UniProt Q14004)
T2 construct: gene CDK13
T2 sequence (Q14004 whole entry): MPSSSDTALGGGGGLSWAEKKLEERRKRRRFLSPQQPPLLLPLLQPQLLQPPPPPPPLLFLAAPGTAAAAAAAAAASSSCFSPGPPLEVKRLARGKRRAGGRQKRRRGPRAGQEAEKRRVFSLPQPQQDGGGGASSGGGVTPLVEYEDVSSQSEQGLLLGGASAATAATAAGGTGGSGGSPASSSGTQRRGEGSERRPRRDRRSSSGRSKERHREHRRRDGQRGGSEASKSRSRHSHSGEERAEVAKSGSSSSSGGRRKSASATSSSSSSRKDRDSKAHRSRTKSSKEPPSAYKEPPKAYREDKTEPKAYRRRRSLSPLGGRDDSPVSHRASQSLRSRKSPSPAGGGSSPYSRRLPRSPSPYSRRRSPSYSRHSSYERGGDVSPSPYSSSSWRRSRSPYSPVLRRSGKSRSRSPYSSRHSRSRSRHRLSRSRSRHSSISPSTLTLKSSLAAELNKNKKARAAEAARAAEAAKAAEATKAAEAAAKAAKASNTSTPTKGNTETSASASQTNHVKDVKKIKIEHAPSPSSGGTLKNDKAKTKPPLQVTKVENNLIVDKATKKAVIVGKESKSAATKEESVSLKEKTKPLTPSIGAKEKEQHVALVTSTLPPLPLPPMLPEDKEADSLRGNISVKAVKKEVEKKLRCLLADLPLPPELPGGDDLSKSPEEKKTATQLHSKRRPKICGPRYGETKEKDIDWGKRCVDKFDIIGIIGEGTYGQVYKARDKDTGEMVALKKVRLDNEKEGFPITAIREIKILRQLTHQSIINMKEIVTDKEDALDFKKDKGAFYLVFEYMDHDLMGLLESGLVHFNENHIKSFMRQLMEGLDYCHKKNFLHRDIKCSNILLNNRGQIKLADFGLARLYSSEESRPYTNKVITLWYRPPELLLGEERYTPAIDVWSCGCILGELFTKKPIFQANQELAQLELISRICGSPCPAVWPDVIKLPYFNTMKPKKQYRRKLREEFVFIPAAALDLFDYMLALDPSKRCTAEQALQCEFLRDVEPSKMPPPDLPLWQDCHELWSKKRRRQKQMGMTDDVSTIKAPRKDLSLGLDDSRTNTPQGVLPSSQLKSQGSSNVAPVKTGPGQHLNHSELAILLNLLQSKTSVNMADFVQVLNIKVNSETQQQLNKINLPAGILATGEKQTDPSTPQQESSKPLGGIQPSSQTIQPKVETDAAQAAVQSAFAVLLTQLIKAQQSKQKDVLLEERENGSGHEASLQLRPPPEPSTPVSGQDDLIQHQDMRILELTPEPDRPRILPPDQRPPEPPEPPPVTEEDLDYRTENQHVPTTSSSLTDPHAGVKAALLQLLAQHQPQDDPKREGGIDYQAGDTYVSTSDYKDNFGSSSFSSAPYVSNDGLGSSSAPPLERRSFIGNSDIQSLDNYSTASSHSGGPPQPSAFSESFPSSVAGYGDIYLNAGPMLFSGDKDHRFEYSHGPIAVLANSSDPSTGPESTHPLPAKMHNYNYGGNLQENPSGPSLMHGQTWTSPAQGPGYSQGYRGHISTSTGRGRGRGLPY
From the text: as §1

[7] = molecular target: CDKL3 (Homo sapiens, UniProt Q8IVW4)
CDKL3, sequence (Q8IVW4 whole entry): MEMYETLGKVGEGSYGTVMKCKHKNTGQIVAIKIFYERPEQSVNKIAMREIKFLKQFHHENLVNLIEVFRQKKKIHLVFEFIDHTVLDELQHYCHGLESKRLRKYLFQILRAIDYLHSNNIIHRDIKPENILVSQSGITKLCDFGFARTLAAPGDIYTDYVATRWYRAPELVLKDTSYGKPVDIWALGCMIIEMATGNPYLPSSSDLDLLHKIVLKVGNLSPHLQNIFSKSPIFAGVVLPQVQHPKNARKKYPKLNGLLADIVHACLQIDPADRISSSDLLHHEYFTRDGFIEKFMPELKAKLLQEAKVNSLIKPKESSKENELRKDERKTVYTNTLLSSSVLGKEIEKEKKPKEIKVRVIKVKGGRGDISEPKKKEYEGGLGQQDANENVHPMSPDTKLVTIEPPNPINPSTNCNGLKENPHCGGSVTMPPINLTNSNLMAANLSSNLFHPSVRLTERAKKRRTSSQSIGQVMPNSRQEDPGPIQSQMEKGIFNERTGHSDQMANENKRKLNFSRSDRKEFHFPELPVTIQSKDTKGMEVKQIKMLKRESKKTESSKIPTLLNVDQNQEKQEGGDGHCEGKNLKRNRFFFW
From the text: as §1

[8] = molecular target: DDR2 (Homo sapiens, UniProt Q16832)
From the text: as §1

[9] = molecular target: EPHB4 (Homo sapiens, UniProt P54760)
From the text: as §1

[10] = molecular target: FLT3(N841I) (Homo sapiens, UniProt P36888, N841I)
From the text: as §1

[11] = molecular target: HIPK2 (Homo sapiens, UniProt Q9H2X6)
From the text: as §1

[12] = molecular target: HIPK4 (Homo sapiens, UniProt Q8NE63)
From the text: as §1

[13] = molecular target: KIT(V559D) (Homo sapiens, UniProt P10721, V559D)
From the text: as §1

[14] = molecular target: MAPKAPK2 (Homo sapiens, UniProt P49137)
MAPKAPK2, sequence (P49137 whole entry): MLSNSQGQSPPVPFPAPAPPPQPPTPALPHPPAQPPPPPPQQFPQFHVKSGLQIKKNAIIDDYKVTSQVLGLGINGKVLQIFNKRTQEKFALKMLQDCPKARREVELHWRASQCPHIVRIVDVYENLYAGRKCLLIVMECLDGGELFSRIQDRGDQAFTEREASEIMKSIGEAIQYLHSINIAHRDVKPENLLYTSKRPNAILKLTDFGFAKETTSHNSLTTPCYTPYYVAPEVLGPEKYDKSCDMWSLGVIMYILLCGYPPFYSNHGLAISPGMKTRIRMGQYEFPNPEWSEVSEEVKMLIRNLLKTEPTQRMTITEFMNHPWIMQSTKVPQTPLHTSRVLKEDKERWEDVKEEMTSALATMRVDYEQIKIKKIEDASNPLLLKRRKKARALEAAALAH
From the text: as §1

[15] = molecular target: MET(Y1235D) (Homo sapiens, UniProt P08581, Y1235D)
MET(Y1235D), sequence (P08581 whole entry Y1235D): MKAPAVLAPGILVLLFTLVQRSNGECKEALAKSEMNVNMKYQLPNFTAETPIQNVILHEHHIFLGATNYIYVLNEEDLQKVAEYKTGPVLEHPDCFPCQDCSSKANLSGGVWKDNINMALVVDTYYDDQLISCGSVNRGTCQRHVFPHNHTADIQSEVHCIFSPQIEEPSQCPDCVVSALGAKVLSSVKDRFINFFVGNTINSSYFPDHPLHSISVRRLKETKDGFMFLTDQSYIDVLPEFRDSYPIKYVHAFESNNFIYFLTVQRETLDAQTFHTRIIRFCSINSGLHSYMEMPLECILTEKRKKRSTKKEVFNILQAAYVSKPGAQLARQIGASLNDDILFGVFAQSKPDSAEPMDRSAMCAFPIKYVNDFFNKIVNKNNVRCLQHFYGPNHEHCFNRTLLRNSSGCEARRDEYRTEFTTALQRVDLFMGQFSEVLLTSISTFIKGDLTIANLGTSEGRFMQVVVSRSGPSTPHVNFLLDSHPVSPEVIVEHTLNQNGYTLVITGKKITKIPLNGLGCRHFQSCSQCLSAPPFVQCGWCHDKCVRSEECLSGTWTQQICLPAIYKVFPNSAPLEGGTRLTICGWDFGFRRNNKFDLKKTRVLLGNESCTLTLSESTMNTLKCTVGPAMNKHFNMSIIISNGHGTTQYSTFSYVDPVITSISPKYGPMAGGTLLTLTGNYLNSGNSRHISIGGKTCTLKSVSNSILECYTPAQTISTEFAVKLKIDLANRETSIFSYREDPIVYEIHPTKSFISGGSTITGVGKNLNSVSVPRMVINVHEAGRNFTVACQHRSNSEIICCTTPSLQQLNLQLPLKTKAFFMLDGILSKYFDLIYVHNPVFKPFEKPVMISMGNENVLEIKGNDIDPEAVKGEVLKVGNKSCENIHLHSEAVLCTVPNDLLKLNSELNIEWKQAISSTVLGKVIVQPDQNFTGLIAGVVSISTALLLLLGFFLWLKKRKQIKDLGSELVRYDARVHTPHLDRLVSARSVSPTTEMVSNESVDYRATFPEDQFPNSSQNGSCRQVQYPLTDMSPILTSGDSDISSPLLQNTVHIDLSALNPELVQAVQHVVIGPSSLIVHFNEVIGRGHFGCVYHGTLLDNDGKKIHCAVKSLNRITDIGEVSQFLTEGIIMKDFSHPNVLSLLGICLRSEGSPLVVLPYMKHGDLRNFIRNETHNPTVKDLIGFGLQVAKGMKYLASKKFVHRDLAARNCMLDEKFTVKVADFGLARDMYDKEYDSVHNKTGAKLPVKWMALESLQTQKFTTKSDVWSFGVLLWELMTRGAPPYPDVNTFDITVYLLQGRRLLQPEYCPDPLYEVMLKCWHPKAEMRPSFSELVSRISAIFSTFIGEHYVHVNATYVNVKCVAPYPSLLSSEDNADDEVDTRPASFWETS
From the text: as §1

[16] = molecular target: T3, MLK1 (Homo sapiens, UniProt P80192)
T3 construct: gene MAP3K9
From the text: as §1

[17] = molecular target: NEK7 (Homo sapiens, UniProt Q8TDX7)
NEK7, sequence (Q8TDX7 whole entry): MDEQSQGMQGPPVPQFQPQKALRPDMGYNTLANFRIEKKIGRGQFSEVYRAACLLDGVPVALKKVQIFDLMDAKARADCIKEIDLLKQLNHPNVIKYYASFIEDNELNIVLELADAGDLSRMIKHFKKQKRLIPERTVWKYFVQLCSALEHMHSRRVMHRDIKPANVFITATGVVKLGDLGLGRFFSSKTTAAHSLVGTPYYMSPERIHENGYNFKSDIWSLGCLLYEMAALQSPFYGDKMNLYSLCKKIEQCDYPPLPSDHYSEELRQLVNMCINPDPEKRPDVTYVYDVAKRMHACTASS
From the text: as §1

[18] = molecular target: PDGFRB (Homo sapiens, UniProt P09619)
From the text: as §1

[19] = molecular target: PLK4 (Homo sapiens, UniProt O00444)
From the text: as §1

[20] = molecular target: PRKCQ (Homo sapiens, UniProt Q04759)
PRKCQ, sequence (Q04759 whole entry): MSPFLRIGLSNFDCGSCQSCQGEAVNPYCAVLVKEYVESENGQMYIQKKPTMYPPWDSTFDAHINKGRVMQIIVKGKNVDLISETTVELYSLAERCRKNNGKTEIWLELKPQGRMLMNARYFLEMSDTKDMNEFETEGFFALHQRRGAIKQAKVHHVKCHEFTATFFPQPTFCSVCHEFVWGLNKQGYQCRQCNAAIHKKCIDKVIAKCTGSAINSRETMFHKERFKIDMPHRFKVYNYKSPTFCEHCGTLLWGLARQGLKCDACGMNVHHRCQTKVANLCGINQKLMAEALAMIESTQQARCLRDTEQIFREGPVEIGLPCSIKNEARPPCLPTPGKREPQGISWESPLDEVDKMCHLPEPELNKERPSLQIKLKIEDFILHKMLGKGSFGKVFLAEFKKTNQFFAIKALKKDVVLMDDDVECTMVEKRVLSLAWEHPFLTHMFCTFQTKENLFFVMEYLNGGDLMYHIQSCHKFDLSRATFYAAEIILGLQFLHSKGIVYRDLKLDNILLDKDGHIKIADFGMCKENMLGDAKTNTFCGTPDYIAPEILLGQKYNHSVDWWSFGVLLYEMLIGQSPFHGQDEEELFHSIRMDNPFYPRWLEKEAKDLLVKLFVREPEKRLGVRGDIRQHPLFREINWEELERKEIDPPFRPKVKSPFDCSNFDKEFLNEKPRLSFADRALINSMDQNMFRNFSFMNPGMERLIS
From the text: as §1

[21] = molecular target: T4, RSK1(Kin.Dom.1-N-terminal) (Homo sapiens, UniProt Q15418)
T4 construct: gene RPS6KA1; Kin.Dom.1-N-terminal
From the text: as §1

[22] = molecular target: T5, RSK2(Kin.Dom.1-N-terminal) (Homo sapiens, UniProt P51812)
T5 construct: gene RPS6KA3; Kin.Dom.1-N-terminal
From the text: as §1

Row | SMILES | remaining binding at 10 µM [1] | remaining binding at 10 µM [2] | remaining binding at 10 µM [3] | remaining binding at 10 µM [4] | remaining binding at 10 µM [5] | remaining binding at 10 µM [6] | remaining binding at 10 µM [7] | remaining binding at 10 µM [8] | remaining binding at 10 µM [9] | remaining binding at 10 µM [10] | remaining binding at 10 µM [11] | remaining binding at 10 µM [12] | remaining binding at 10 µM [13] | remaining binding at 10 µM [14] | remaining binding at 10 µM [15] | remaining binding at 10 µM [16] | remaining binding at 10 µM [17] | remaining binding at 10 µM [18] | remaining binding at 10 µM [19] | remaining binding at 10 µM [20] | also measured
1 | COc1ccc(-c2cnccc2-c2cnc(NC(=O)C(C)C)s2)c(C(F)(F)F)c1 [CRT0105446, N-{5-[3-(4-Methoxy-2-trifluoromethyl-phenyl)-pyridin-4-yl]-hiazol-2-yl}-isobutyramide] | 78% | 83% | 100% | 79% | 27% | 14% | 26% | 0.4% | 93% | 22% | 92% | 75% | 39% | 100% | 96% | 86% | 100% | 51% | 89% | 74% | remaining binding at 10 µM [21]: 56%; remaining binding at 10 µM [22]: 37%
2 | Cc1ccc(-c2cnccc2-c2cnc(Nc3ccc(O)cc3)s2)c(Cl)c1 [CRT0105950, 4-{5-[3-(2-Chloro-4-methyl-phenyl)-pyridin-4-yl]-thiazol-2-ylamino}-phenol] | 51% | 66% | 100% | 93% | 30% | 26% | 23% | 12% | 82% | 0% | 55% | 16% | 0.75% | 100% | 14% | 13% | 100% | 1.6% | 43% | 13% | remaining binding at 10 µM [21]: 0.05%; remaining binding at 10 µM [22]: 0.1%
